Measured values taken from US20240000786A1, “COMPOSITION FOR ENHANCING INTRA-CELLULAR NITRIC OXIDE GENERATION” (INSTITUTE OF LIFE SCIENCES, priority 2020, published 2024).

T1: rNOSIP (Homo sapiens, UniProt Q9Y314)
T1 construct: made in house; host or cells: E. coli BL21 (DE3)
T1 sequence (Q9Y314 with tags, fused parts or gaps): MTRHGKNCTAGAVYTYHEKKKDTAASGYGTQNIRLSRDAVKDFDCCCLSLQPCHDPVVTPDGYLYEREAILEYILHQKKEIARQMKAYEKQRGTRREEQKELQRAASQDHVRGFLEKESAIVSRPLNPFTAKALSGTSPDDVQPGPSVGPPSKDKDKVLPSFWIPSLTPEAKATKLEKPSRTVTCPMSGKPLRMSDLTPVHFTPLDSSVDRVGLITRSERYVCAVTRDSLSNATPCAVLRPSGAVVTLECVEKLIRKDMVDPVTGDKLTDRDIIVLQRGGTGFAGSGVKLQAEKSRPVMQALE

T2: iNOS-NOSIP protein interaction (Homo sapiens, UniProt Q9Y314)
T2 construct: made in house; host or cells: E. coli BL21 (DE3)
T2 sequence (Q9Y314 with tags, fused parts or gaps): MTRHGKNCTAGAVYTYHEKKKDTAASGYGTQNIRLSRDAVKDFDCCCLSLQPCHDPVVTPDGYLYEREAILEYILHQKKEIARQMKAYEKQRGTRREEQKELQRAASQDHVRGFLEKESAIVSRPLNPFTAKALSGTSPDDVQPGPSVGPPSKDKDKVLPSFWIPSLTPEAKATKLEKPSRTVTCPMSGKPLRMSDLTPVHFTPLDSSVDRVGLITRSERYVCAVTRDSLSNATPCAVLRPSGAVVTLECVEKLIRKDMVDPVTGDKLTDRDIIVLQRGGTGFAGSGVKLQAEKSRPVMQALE


Columns and labels:
human PBMCs = experiment: NO levels (Griess) in human PBMCs, small molecules alone or in combination; type: cell-based; details: 0.1 and 0.01 μM, 24 h
Description: PBMCs (1 million cells/ml) from healthy individuals' blood was isolated and were treated with or without NOSIP antagonists (either alone or mixture of equimolar concentration of all 5 small molecule antagonists at 0.1 and 0.01 μM) for 30 min in triplicate wells and incubated for 24 h at 37° C. The culture supernatants were analysed by […] for nitrite concentration using Griess reagent, and the NO levels are shown as mean percent increase over untreated control. The panel on the right top of FIG. 10 depict nitrite levels by individual small molecules in human PBMCs. […] Thus a combined mixture of 5 small molecules will be desirable for use in mouse as well as humans.

rNOSIP = molecular target: T1, rNOSIP; experiment: Isothermal titration calorimetry (ITC) of rNOSIP with small molecules / 18 mer iNOS peptide (PP2); type: binding; details: for ΔG / ΔH / −TΔS / Kd / N (Sites): ITC 25° C.; for Kd / N (Sites): small molecule/peptide in cell, NOSIP in syringe; for Fold Change (KD): ITC KD relative to iNOS-Peptide2 = 1; for SM binding affinity with NOSIP, hierarchy: ITC, rank order
Description: The 18 mer iNOS peptide (PP2) and small molecules were used for physical association of molecules in calorimetric analysis. The molecular association leads to thermodynamics changes such as Gibb's free energy change (ΔG), entropy change (ΔS), enthalpy change (ΔH) and number of binding sites (N) in interacting solution were investigated by isothermal calorimetry MICROCAL PEQ (Malvern) at 25° C. […] The experiment consisted of multiple injections and each injection contained 1.5 μl of binding solution (recombinant NOSIP solution) with 120 second spacing time between subsequent injections. Sequential titrations were carried out and the sample solution was continuously stirred at 270 rpm by the rotating paddle attached to the syringe needle. Multiple injections of NOSIP made into the sample cell containing interacting solution of peptide and small molecules. The titration curves were analyzed using the analysis software provided with the calorimeter.
The 18 mer iNOS peptide (PP2) and five small molecules were used to analyze physical association in calorimetric analysis. The molecular association leads to thermodynamics changes such as Gibb's free energy change (ΔG), entropy change (ΔS), enthalpy change (ΔH) and number of binding sites (N) in interacting solution were investigated by isothermal calorimetry MICROCAL PEQ (Malvern) at 25° C. […] The experiment consisted of multiple injections and each injection contained 1.5 μl of binding solution with 120 second spacing time between subsequent injections. Sequential titrations were carried out and the sample solution was continuously stirred at 270 rpm by the rotating paddle attached to the syringe needle. Multiple injections of NOSIP made into the sample cell containing interacting solution of peptide and small molecules. The titration curves were analyzed using the analysis software provided with the calorimeter.

[1] = molecular target: T2, iNOS-NOSIP protein interaction; experiment: SPR: inhibition of rNOSIP association with immobilized recombinant iNOS by iNOS peptides / small molecules; type: binding; details: for inhibition hierarchy of iNOS-NOSIP protein interaction: SPR, rank order; for Kd: Kd/Ka; for inhibition of binding of NOSIP with iNOS ligand by small molecules: rNOSIP 250 nM, small molecules 1 uM, SPR (FIG. 4)
Description: Four different iNOS peptides were synthesized commercially by China peptides and iNOS peptides were used for molecular interaction studies with immobilized recombinant iNOS purified protein. The iNOS peptides mediated inhibition of rNOSIP and riNOS protein association in Bio-Rad XPR 36 surface plasmon resonance biosensor instrument. […] 250 nM of iNOS peptides was used for inhibition assay with immobilized ligand(recombinant iNOS) in SPR analysis. Similar condition and concentration of small molecules were used for inhibition of recombinant protein association with immobilized ligand. […] The rNOSIP protein was incubated with iNOS derived peptide/small molecules for 30 minutes in ice for inhibition assay before the SPR application in our study. The molecular interaction was carried out at 20° C. and kinetic parameters were determined, after fitting the association and dissociation curves to a 1:1 (Langmuir)-binding model. An activated channel without immobilized ligand was used to evaluate nonspecific binding. The response curves were also recorded on control surfaces. Results were calculated after subtraction of the control values using the ProteOn Manager software.
The collected sensorgram data were processed by reference subtraction using double-referencing with the in-line blank buffer. The integrated ProteOn Manager software was used to fit the data with the Langmuir model describing a 1:1 binding stoichiometry. Ka is the association rate constant, Kd is the dissociation rate constant, and KD is the equilibrium dissociation constant, defined by the Kd/Ka ratio for the analytes-ligand binding.
The five small molecules bind with NOSIP and inhibit the association of recombinant NOSIP and recombinant iNOS. The rNOSIP protein was incubated with iNOS derived peptide or small molecules for 30 minutes in ice prior to SPR application. The molecular interaction was carried out at 20° C. and kinetic parameters were determined, after fitting the association and dissociation curves to a 1:1 (Langmuir)-binding model. An activated channel without immobilized ligand (recombinant iNOS) was used to evaluate nonspecific binding. The response curves were also recorded on control surfaces. Results were calculated after subtraction of the control values using the ProteOn Manager software.
The collected sensorgram data were processed by reference subtraction using double-referencing with the in-line blank buffer. The integrated ProteOn
Manager software was used to fit the data with the Langmuir model describing a 1:1 binding stoichiometry. Ka is the association rate constant, Kd is the dissociation rate constant, and KD is the equilibrium dissociation constant, defined by the Kd/Ka ratio for the analytes—ligand binding.

Mouse BMDMs = experiment: Nitric oxide production by individual small molecules in mouse BMDM; type: cell-based
recombinant iNOS = molecular target: T3, recombinant iNOS (Homo sapiens, UniProt P35228); experiment: iNOS enzyme activity in presence of recombinant NOSIP, Griess reaction; type: biochemical; details: iNOS 0.5 μM, NOSIP 0.5 to 5 μM, substrate L-Arginine
T3 construct: made in house; host or cells: E. coli BL21 (DE3)
Description: The human iNOS oxygenase domain (SEQ ID No.: 24) containing 424 nucleotide sequence and NOSIP gene (SEQ ID No.: 23) containing 301 nucleotide sequences were synthesized by GenScript and cloned in pET22b expression vector. The recombinant pET22b: iNOS and pET22b: NOSIP plasmid was used to transform competent E. coli BL21 (DE3) cells. The proteins were over expressed using 0.2 mM IPTG at 25° C. The harvested cells were resuspended and sonicated in 20 mM Tris-HCl, pH 7.5, 200 mM NaCl, 0.05% Triton X-100 and protease inhibitor (Sigma). The expressed proteins were purified by nickel nitrilotriacetic acid column using 250 mM imidazole and gel filtration chromatography. The protein was quantified by Bradford assay (Sigma) and integrity of purified protein was checked on 12% SDS-PAGE.
In a […] assay increasing concentrations of recombinant NOSIP were mixed with recombinant iNOS along with substrate L-Arginine and the resultant product, […] was quantified by using Griess reaction kit. […] Statistical significance was assessed by one way ANOVA, Tukey& #39;s Multiple Comparison Test.

[2] = analyte rNOSIP alone or + peptide/small molecule, ligand r iNOS, 20° C.
[3] = analyte rNOSIP alone or + peptide/small molecule, ligand r iNOS, 20° C., 1:1 Langmuir

T3 sequence (P35228 with tags, fused parts or gaps limits assumed): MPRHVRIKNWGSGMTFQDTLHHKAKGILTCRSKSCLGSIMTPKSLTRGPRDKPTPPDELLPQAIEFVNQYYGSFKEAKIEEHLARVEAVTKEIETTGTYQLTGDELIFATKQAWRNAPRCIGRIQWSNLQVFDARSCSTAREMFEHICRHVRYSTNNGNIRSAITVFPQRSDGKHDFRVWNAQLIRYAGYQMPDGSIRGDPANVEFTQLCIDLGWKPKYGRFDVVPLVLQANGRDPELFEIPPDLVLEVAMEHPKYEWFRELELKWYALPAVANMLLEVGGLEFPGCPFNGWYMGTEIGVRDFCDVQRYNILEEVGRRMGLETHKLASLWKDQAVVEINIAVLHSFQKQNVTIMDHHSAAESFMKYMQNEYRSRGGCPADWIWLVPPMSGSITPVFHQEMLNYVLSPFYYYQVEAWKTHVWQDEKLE

| Molecule | nitric oxide produced, individual small molecules compared (human PBMCs) | ΔG (rNOSIP) [kcal/mol] | ΔH (rNOSIP) [kcal/mol] | −TΔS (rNOSIP) [kcal/mol] | Kd (rNOSIP) [nM] | N (Sites) (rNOSIP) | Fold Change (KD) (rNOSIP) | SM binding affinity with NOSIP, hierarchy (rNOSIP) | inhibition hierarchy of iNOS-NOSIP protein interaction [1] | kon ([1]; analyte rNOSIP alone or + peptide/small molecule, ligand r iNOS, 20° C., 1:1 Langmuir, read-out: Ka) [M⁻¹ s⁻¹] | Kd [1, 2] [nM] | inhibition of binding of NOSIP with iNOS ligand by small molecules [1] | nitric oxide produced, individual small molecules compared (Mouse BMDMs) | Ka(1/Ms) [1, 3] | inhibition of iNOS enzyme activity (Griess) (recombinant iNOS) |
| --- | --- | --- | --- | --- | --- | --- | --- | --- | --- | --- | --- | --- | --- | --- | --- |
| COc1cc(C)ccc1OCc1nc(C(=O)NCc2n[nH]c3c2CCC3)co1 [MCULE-4640800528, N-({1H,4H,5H,6H-cyclopenta[c]pyrazol-3-yl}methyl)-2[(2-methoxy-4-methylphenoxy)methyl]-1,3-oxazole-4-carboxamide] | more effective than molecules in human cells | -8.70 | -8.54 ± 0.255 | -0.159 | 420 ± 57.5 | 1.04 | 0.766 | CC4>CC11>CC6>CC5>CC13>Peptide 2 (iNOS) | CC4>CC11>CC6>CC5>CC13>iNOS Peptide 2 | 0.563 | 870000 | inhibit the binding of NOSIP with iNOS ligand | – | – | – |
| CCN(c1ccccc1)S(=O)(=O)c1ccc(Cl)c(NC(=O)COC(=O)c2ccccc2SCC(=O)Nc2ccc3c(c2)OCO3)c1 [MCULE-8094061955, ({2-chloro-5-[ethyl(phenyl)sulfamoyl]phenyl}carbamoyl)methyl 2-({[(2H-1,3-benzodioxol-5-yl)carbamoyl]methyl}sulfanyl) benzoate] | – | -8.61 | -9.07 ± 0.251 | 0.459 | 493 ± 63.2 | 0.993 | 0.899 | CC4>CC11>CC6>CC5>CC13>Peptide 2 (iNOS) | CC4>CC11>CC6>CC5>CC13>iNOS Peptide 2 | – | 809000 | inhibit the binding of NOSIP with iNOS ligand | more effective with mouse cells | 6.7e^−01 1/Ms | – |
| NOSIP: recombinant Nitric oxide synthase interacting protein expressed in E. coli BL21 (DE3) (protein, UniProt Q9Y314 1-301, looked up) Nitric oxide …: MTRHGKNCTAGAVYTYHEKKKDTAASGYGTQNIRLSRDAVKDFDCCCLSLQPCHDPVVTPDGYLYEREAILEYILHQKKEIARQMKAYEKQRGTRREEQKELQRAASQDHVRGFLEKESAIVSRPLNPFTAKALSGTSPDDVQPGPSVGPPSKDKDKVLPSFWIPSLTPEAKATKLEKPSRTVTCPMSGKPLRMSDLTPVHFTPLDSSVDRVGLITRSERYVCAVTRDSLSNATPCAVLRPSGAVVTLECVEKLIRKDMVDPVTGDKLTDRDIIVLQRGGTGFAGSGVKLQAEKSRPVMQA | – | – | – | – | – | – | – | – | – | – | 7.11 | – | – | 9.57e^+04 1/Ms | inhibits enzyme activity of iNOS |
